Experiments:
IDH1 R132H = IDH1 R132H (Homo sapiens, UniProt O75874, R132H); assay: In vitro assay for IDH1 R132H inhibitors (NADPH/aKG, resazurin detection); format: biochemical; settings: Table 4B; 0.2 μg/ml IDH1 R132H, 50 minutes at room temperature; read-out: IC50, IDH1 R132H Inhibition
Protocol: Assays were conducted in a volume of 76 μl assay buffer (150 mM NaCl, 10 mM MgCl2, 20 mM Tris pH 7.5, 0.03% bovine serum albumin) as follows in a standard 384-well plate: To 25 ul of substrate mix (8 uM NADPH, 2 mM aKG), 1 μl of test compound was added in DMSO. The plate was centrifuged briefly, and then 25 μl of enzyme mix was added (0.2 μg/ml IDH1 R132H) followed by a brief centrifugation and shake at 100 RPM. The reaction was incubated for 50 minutes at room temperature, then 25 μl of detection mix (30 μM resazurin, […]) was added and the mixture further incubated for 5 minutes at room temperature. The conversion of resazurin to resorufin was detected by fluorescent spectroscopy at Ex544 Em590 c/o 590.
The compounds of Formula I set forth in Table 1 and the compounds set forth in Table 2 were tested in this assay and the results set forth below in Table 4A and 4B.

U87MG cells = assay: Cellular assay: inhibition of 2-HG production in U87MG cells (LC-MS, 48 hours); format: cell-based; settings: Homo sapiens, U-87 MG, 2-HG in media by LC-MS
Protocol: Cells (HT1080 or U87MG) were grown in T125 flasks in DMEM containing 10% FBS, 1× penicillin/streptomycin and 500 ug/mL G418 (present in U87MG cells only). They were harvested by trypsin and seeded into 96 well white bottom plates at a density of 5000 cell/well in 100 ul/well in DMEM with 10% FBS. No cells were placed in columns 1 and 12. Cells were incubated overnight at 37° C. in 5% CO2. The next day test compounds were made up at 2× the final concentration and 100 ul were added to each cell well. The final concentration of DMSO was 0.2% and the DMSO control wells were plated in row G. The plates were then placed in the incubator for 48 hours. At 48 hours, 100 ul of media was removed from each well and analyzed by LC-MS for 2-HG concentrations. The cell plate was placed back in the incubator for another 24 hours. At 72 hours post compound addition, 10 mL/plate of Promega Cell Titer Glo reagent was thawed and mixed. The cell plate was removed from the incubator and allowed to equilibrate to room temperature. Then 100 ul of Promega Cell Titer Glo reagent was added to each well of media. The cell plate was then placed on an orbital shaker for 10 minutes and then allowed to sit at room temperature for 20 minutes. The plate was then read for luminescence with an integration time of 500 ms.

Sequence of IDH1 R132H (O75874 whole entry R132H): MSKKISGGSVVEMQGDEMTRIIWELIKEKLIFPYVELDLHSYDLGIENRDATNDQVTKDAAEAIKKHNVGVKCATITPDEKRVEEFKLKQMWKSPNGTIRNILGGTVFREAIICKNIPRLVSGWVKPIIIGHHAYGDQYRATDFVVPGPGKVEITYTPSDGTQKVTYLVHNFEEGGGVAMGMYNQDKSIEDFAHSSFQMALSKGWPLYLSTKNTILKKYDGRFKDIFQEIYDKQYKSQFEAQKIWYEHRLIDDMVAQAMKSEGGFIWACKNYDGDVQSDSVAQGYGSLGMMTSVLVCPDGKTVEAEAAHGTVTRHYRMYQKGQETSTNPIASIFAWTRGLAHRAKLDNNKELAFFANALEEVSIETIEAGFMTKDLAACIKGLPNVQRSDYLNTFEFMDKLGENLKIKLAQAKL

Compound | IC50 (IDH1 R132H) | IC50 (U87MG cells)
Cc1ccccc1C(C(=O)NC1CCCCC1)N(C(=O)Cc1cscn1)c1cccc(F)c1 (stereo not shown) [Compound 158] | 100 to 1000 nM | 250 to 1000 nM
Cc1ccccc1C(C(=O)NC1CCOCC1)N(C(=O)Cc1cccs1)c1cccc(F)c1 (stereo not shown) [Compound 159] | 100 to 1000 nM | –
Cc1ccccc1C(C(=O)NC1CCCCC1)N(C(=O)CSC(=N)N)c1cccc(F)c1 (stereo not shown) [Compound 163] | 100 to 1000 nM | > 5000 nM
Cc1ccccc1C(C(=O)Nc1ccccc1Br)N(C(=O)Cc1cccs1)c1cccc(F)c1 (stereo not shown) [Compound 164] | 100 to 1000 nM | –
Cc1ccccc1C(C(=O)NC1CCCCC1)N(C(=O)CNC1COC1)c1cccc(F)c1 (stereo not shown) [Compound 170] | 100 to 1000 nM | 1000 to 5000 nM
Cc1ccccc1C(C(=O)NC1CCCCC1)N(C(=O)CNCc1cccnc1)c1cccc(F)c1 (stereo not shown) [Compound 174] | 100 to 1000 nM | 1000 to 5000 nM
Cc1ccccc1C(C(=O)NC1CCOCC1)N(C(=O)CN1CCCc2ccccc21)c1cccc(F)c1 (stereo not shown) [Compound 179] | 100 to 1000 nM | 1000 to 5000 nM
Cc1ccccc1C(C(=O)NC1CCCCC1)N(C(=O)CNC1CCCCC1O)c1cccc(F)c1 (stereo not shown) [Compound 180] | 100 to 1000 nM | 1000 to 5000 nM
Cc1ccccc1C(C(=O)NC1CCCCC1)N(C(=O)CNC1CCOCC1)c1cccc(F)c1 (stereo not shown) [Compound 181] | 100 to 1000 nM | 1000 to 5000 nM
Cc1ccccc1C(C(=O)NC1CC2CCC1C2)N(C(=O)Cc1cccs1)c1cccc(F)c1 (stereo not shown) [Compound 186] | ≤ 100 nM | 250 to 1000 nM
Cc1ccccc1C(C(=O)NC1CCCCC1)N(C(=O)COc1cccc(F)c1)c1cccc(F)c1 (stereo not shown) [Compound 189] | 100 to 1000 nM | > 5000 nM
Cc1ccccc1C(C(=O)NC1CCCCC1)N(C(=O)Cc1ccc(OC(=O)N2CCN(C)CC2)cc1)c1cccc(F)c1 (stereo not shown) [Compound 277] | 1000 to 10000 nM | –
O=C(NC1CCCCC1)C(c1ccccc1F)N(C(=O)CNCc1ccncc1)c1cccc(F)c1 (stereo not shown) [Compound 323] | 100 to 1000 nM | –
Cc1ccccc1[C@@H](C(=O)NC1CCCCC1)N(C(=O)[C@H]1CCCCN1)c1cccc(F)c1 [Compound 337] | 100 to 1000 nM | –
Cc1ccccc1[C@@H](C(=O)NC1CCCCC1)N(C(=O)[C@@H]1CCCN1C(=O)OC(C)(C)C)c1cccc(F)c1 [Compound 343] | 100 to 1000 nM | –
CCOC(=O)N1CCCC[C@H]1C(=O)N(c1cccc(F)c1)[C@H](C(=O)NC1CCCCC1)c1ccccc1C [Compound 348] | ≤ 100 nM | –
Cc1ccccc1[C@@H](C(=O)NC1CCCCC1)N(C(=O)[C@@H]1CCCCN1S(C)(=O)=O)c1cccc(F)c1 [Compound 349] | 100 to 1000 nM | –
CCC(=O)N1CCCC[C@H]1C(=O)N(c1cccc(F)c1)[C@H](C(=O)NC1CCCCC1)c1ccccc1C [Compound 350] | 100 to 1000 nM | 1000 to 5000 nM

Compound | IC50 (IDH1 R132H) | IC50 (U87MG cells)
Cc1ccccc1C(C(=O)NC1CCCCC1)N(C(=O)CNC(=O)OC(C)(C)C)c1ccccc1F (stereo not shown) [Compound 352] | 100 to 1000 nM | –
COC(=O)NCC(=O)N(c1ccc(F)cc1)C(C(=O)NC1CCCCC1)c1ccccc1C (stereo not shown) [Compound 353] | 100 to 1000 nM | –
COC(=O)N1CCC[C@@H]1C(=O)N(c1cccc(F)c1)[C@H](C(=O)NC1CCCCC1)c1ccccc1C [Compound 355] | 100 to 1000 nM | –
COC(=O)NCC(=O)N(c1ccc(F)c(F)c1)C(C(=O)NC1CCCCC1)c1ccccc1C (stereo not shown) [Compound 358] | 100 to 1000 nM | –
CCOC(=O)N1CCC[C@@H]1C(=O)N(c1cccc(F)c1)[C@H](C(=O)NC1CCCCC1)c1ccccc1C [Compound 360] | 100 to 1000 nM | –
Cc1ccccc1[C@@H](C(=O)NC1CCCCC1)N(C(=O)[C@@H]1CCCN1S(C)(=O)=O)c1cccc(F)c1 [Compound 362] | 100 to 1000 nM | –
CNC(=O)N1CCCC[C@@H]1C(=O)N(c1cccc(F)c1)[C@H](C(=O)NC1CCCCC1)c1ccccc1C [Compound 364] | 100 to 1000 nM | –
Cc1ccccc1[C@@H](C(=O)NC1CCCCC1)N(C(=O)[C@H]1CCCCN1C(=O)N(C)C)c1cccc(F)c1 [Compound 365] | 100 to 1000 nM | –
Cc1ccccc1C(C(=O)NC1CCCCC1)N(C(=O)CNC(=O)OC(C)(C)C)c1cccc(F)c1 (stereo not shown) [Compound 368] | 100 to 1000 nM | –
Cc1ccccc1C(C(=O)NC1CCCCC1)N(C(=O)CCNC(=O)OC(C)(C)C)c1cccc(F)c1 (stereo not shown) [Compound 369] | 100 to 1000 nM | –
CC(=O)N1CCC[C@@H]1C(=O)N(c1cccc(F)c1)[C@H](C(=O)NC1CCCCC1)c1ccccc1C [Compound 371] | 100 to 1000 nM | –
CNC(=O)N1CCC[C@@H]1C(=O)N(c1cccc(F)c1)[C@H](C(=O)NC1CCCCC1)c1ccccc1C [Compound 375] | 100 to 1000 nM | –
Cc1ccccc1[C@@H](C(=O)NC1CCCCC1)N(C(=O)[C@H]1CCCN1)c1cccc(F)c1 [Compound 376] | 100 to 1000 nM | –
O=C(NC1CCCCC1)C(c1ccccc1Cl)N(C(=O)c1cc2ccccc2[nH]1)c1cccc(F)c1 (stereo not shown) [Compound 382] | 100 to 1000 nM | –
O=C(NC1CCCCC1)C(c1ccccc1Cl)N(C(=O)Cn1cnc(Cl)c1Cl)c1cccc(F)c1 (stereo not shown) [Compound 383] | ≤ 100 nM | –
N#Cc1ncn(CC(=O)N(c2cccc(F)c2)C(C(=O)NC2CCCCC2)c2ccccc2Cl)c1C#N (stereo not shown) [Compound 384] | 100 to 1000 nM | –
COC(=O)N1CCOC[C@H]1C(=O)N(c1cccc(F)c1)[C@H](C(=O)NC1CCCCC1)c1ccccc1C [Compound 385] | ≤ 100 nM | –
Cc1ccccc1C(C(=O)NC1CCCCC1)N(C(=O)Oc1ccccc1)c1ccccc1 (stereo not shown) [Compound 392] | 100 to 1000 nM | –

Second part, the molecule after the results:

IC50 (IDH1 R132H) | IC50 (U87MG cells) | Compound
≤ 100 nM | ≤ 250 nM | Cc1ccccc1C(C(=O)NC1CCCCC1)N(C(=O)Cc1c[nH]c2ccccc12)c1cccc(F)c1 (stereo not shown) [Compound 126]
≤ 100 nM | 250 to 1000 nM | Cc1ccccc1C(C(=O)NC1CCCCC1)N(C(=O)Cn1cnc2ccccc21)c1cccc(F)c1 (stereo not shown) [Compound 135]
100 to 1000 nM | – | Cc1ccccc1C(C(=O)NC1CCCCC1)N(C(=O)Cn1nnc2ccccc21)c1cccc(F)c1 (stereo not shown) [Compound 151]
100 to 1000 nM | – | Cc1ccccc1C(C(=O)NC1CCCCC1)N(C(=O)CNCc1ccccc1)c1cccc(F)c1 (stereo not shown) [Compound 152]
100 to 1000 nM | – | Cc1ccccc1C(C(=O)NC1CCCCC1)N(C(=O)CN1CCc2ccccc21)c1cccc(F)c1 (stereo not shown) [Compound 153]
100 to 1000 nM | 1000 to 5000 nM | Cc1ccccc1C(C(=O)NC1CCCCC1)N(C(=O)CNCCc1ccccc1)c1cccc(F)c1 (stereo not shown) [Compound 154]
≤ 100 nM | – | Cc1ccccc1C(C(=O)NC1CCCCC1)N(C(=O)CNc1ccccc1)c1cccc(F)c1 (stereo not shown) [Compound 155]
100 to 1000 nM | – | Cc1ccccc1C(C(=O)NC1CCCCC1)N(C(=O)Cn1ccnc1)c1cccc(F)c1 (stereo not shown) [Compound 156]
100 to 1000 nM | – | Cc1ccccc1C(C(=O)NC1CCCCC1)N(Cc1cccs1)C(=O)Cn1nnc2ccccc21 (stereo not shown) [Compound 157]
≤ 100 nM | 250 to 1000 nM | Cc1ccccc1C(C(=O)NC1CCCCC1)N(C(=O)CN(C)c1ccccc1)c1cccc(F)c1 (stereo not shown) [Compound 161]
1000 to 10000 nM | – | Cc1ccccc1C(C(=O)NC1CCCCC1)N(Cc1cccs1)C(=O)CN1CCCc2ccccc21 (stereo not shown) [Compound 168]
100 to 1000 nM | – | Cc1ccccc1C(C(=O)NC1CCCCC1)N(Cc1cccs1)C(=O)CNCc1ccncc1 (stereo not shown) [Compound 169]
100 to 1000 nM | 250 to 1000 nM | Cc1ccccc1C(C(=O)NC1CCC1)N(C(=O)Cc1cccs1)c1cccc(F)c1 (stereo not shown) [Compound 178]
100 to 1000 nM | 1000 to 5000 nM | Cc1ccccc1C(C(=O)NC1CCCCC1)N(Cc1cccs1)C(=O)CN(C)c1ccccc1 (stereo not shown) [Compound 182]
100 to 1000 nM | 1000 to 5000 nM | Cc1ccccc1C(C(=O)NC1CCOCC1)N(C(=O)CN(C)c1ccccc1)c1cccc(F)c1 (stereo not shown) [Compound 183]
100 to 1000 nM | 1000 to 5000 nM | Cc1ccccc1C(C(=O)NC1CCCCC1)N(Cc1cccs1)C(=O)CN1Cc2ccccc2C1 (stereo not shown) [Compound 187]
100 to 1000 nM | 250 to 1000 nM | Cc1ccccc1C(C(=O)NC1CCCCC1)N(C(=O)CN1Cc2ccccc2C1)c1cccc(F)c1 (stereo not shown) [Compound 188]
100 to 1000 nM | – | Cc1ccccc1C(C(=O)NC1CCCCC1)N(C(=O)Cn1ccnn1)c1cccc(F)c1 (stereo not shown) [Compound 329]
100 to 1000 nM | – | COC(=O)NCC(=O)N(Cc1cccs1)C(C(=O)NC1CCCCC1)c1ccccc1C (stereo not shown) [Compound 372]
≤ 100 nM | ≤ 250 nM | O=C(NC1CCCCC1)[C@@H](c1ccccc1)N(C(=O)Cc1cccs1)c1cccc(F)c1 [Compound 386]
100 to 1000 nM | > 5000 nM | Cc1ccccc1C(C(=O)NC1CCCCC1)N(Cc1cccs1)C(=O)NCc1ccccc1 (stereo not shown) [Compound 388]
100 to 1000 nM | – | Cc1ccccc1C(C(=O)NC1CCCCC1)N(C(=O)OCc1ccccc1)c1ccccc1 (stereo not shown) [Compound 391]

Reference: patent publication US20130184222A1, “[…] ACTIVE COMPOSITIONS AND THEIR METHODS OF USE” (AGIOS PHARMACEUTICALS, INC, priority 2010, published 2013)
